Measured values reported in US20090023697A1, “ANALGESIA METHOD” (Vernalis (R&D) Limited, priority 2003, published 2009).

How the values were obtained:
mice = conditions: cited from earlier work
male Wistar rats [1] = experiment: Rotarod running test to assess sedation after neurosteroid sustained release emulsions; conditions: sc sustained release emulsion; for sedation (rotarod run time) at 1 hour after injection: normal run time 120 s
rats [2] = experiment: Tail flick latency (TFL) response to ip morphine: effect of alphadolone on established morphine tolerance
Source text: An observer unaware of the nature of this treatment, saline or alphadolone, made the TFL measurements.
The TFL responses on day 1 and day 3 were combined for drug treatment and expressed as means SEM. These values were compared to see if tolerance occurred and whether co administration of alphadolone caused reversal of the tolerance effect.

[3] = alphadolone alone; cited from earlier work
[4] = dose of alphadolone used for tolerance reversal (10 mg/kg); cited from earlier work
rats [5] = experiment: Electrical current threshold (ECT) test of nociceptive threshold in the tail after alphadolone sustained release emulsion; conditions: 250 mg/kg alphadolone acetate sc in slow release emulsion
[6] = given ip or intragastrically; cited from earlier work
male Wistar rats [7] = experiment: Tail flick latency (TFL) response to ip morphine: effect of sustained release neurosteroid on development of morphine tolerance
[8] = in vivo; cited from earlier work
[9] = alphadolone 250 mg/kg, alphaxalone 80 mg/kg

Which “prevention of morphine tolerance” value (mice) does the source give for `CC(=O)C1CCC2C3CC=C4CC(OS(=O)(=O)O)CCC4(C)C3CCC12C` (centres unmarked) [pregnenolone sulphate] here?
Its value is “positive results”.

Which “prevention of morphine tolerance” value (mice) does the source give for dehydroepiandrosterone sulphate here?
Its value is “positive results”.

Which “prevention of morphine tolerance” value (mice) does the source give for `CC(=O)[C@H]1CC[C@H]2[C@@H]3CC[C@H]4C[C@H](O)CC[C@]4(C)[C@H]3CC[C@]12C` [allopregnanolone] here?
The value was “positive results”.

What does the source list for `CC(=O)OCC(=O)[C@H]1CC[C@H]2[C@@H]3CC[C@H]4C[C@H](O)CC[C@]4(C)[C@H]3C(=O)C[C@]12C` [alphadolone, 21-acetoxy-3alpha-hydroxy-5alpha-pregnane-11, 20-dione]?
sedation (rotarod run time) later than 1 hour after injection (male Wistar rats [1]; alphadolone 250 mg/kg): no sedation; sedation (rotarod run time) at 1 hour after injection (male Wistar rats [1]; [9]): small but significant amount of sedation; TFL response, day 3 (post tolerance), morphine co administered with alphadolone (rats [2]; 6.4 mg/kg morphine ip plus alphadolone 10 mg/kg after two days morphine emulsion, mean SEM, n=9): 78.6 9.8 % MPE; day 3 response compared with day 1 response before tolerance (rats [2]; morphine 6.4 mg/kg ip co administered with alphadolone 10 mg/kg, p>0.05 one way ANOVA): equal to that produced on day 1; antinociceptive effects in the TFL test [3]: no antinociceptive effects; potentiation of morphine TFL effects [4]: potentiate morphine TFL effects; loss of consciousness / looking sedated after the injection (rats [5]): did not cause any rat to lose consciousness or in any way to look sedated; time by which nociceptive threshold (ECT) was significantly increased (rats [5]; n=10): one; time nociceptive threshold (ECT) remained elevated (rats [5]; n=10, readings up to 44 hours): 24 h; antinociception [6]: causes antinociceptive effects; sedation [6]: without sedation; sedation observed during the course of the tolerance experiment (male Wistar rats [7]; sc emulsions with morphine emulsion, alphadolone 250 mg/kg/day, alphaxalone 80 mg/kg/day): no overt signs of sedation; post treatment TFL values (6.4 mg/kg ip morphine, day 3) compared with vehicle treated controls (male Wistar rats [7]; two days sc morphine emulsion plus sc emulsion of alphadolone 250 mg/kg/day or alphaxalone 80 mg/kg/day, Students t test): statistically significant difference

For `CN1CC[C@]23c4c5ccc(O)c4O[C@H]2[C@@H](O)C=C[C@H]3[C@H]1C5` [morphine], which “tail flick latency response, day 1 (pre tolerance)” value (rats [2]; immediate release morphine 6.4 mg/kg ip, both groups, n=9) is on record?
The value was “approximately 80 % MPE”.

Which “potency as an anaesthetic compared with alphadolone” value [8] does the source give for `CC(=O)[C@H]1CC[C@H]2[C@@H]3CC[C@H]4C[C@H](O)CC[C@]4(C)[C@H]3C(=O)C[C@]12C` [alphaxalone] here?
The value was “three”.

And the “sedation (rotarod run time) at 1 hour after injection” value (male Wistar rats [1]; [9])?
Its value is “significantly greater than that caused by alphadolone”.

And the “duration of significant sedative effects (rotarod)” value (male Wistar rats [1]; alphaxalone 80 mg/kg)?
The value was “four”.

What about the antinociception [6] of the same molecule?
Its antinociception is “no antinociception”.

And the sedation [6]?
Its sedation is “causes sedation”.

With `CC(=O)[C@H]1CC[C@H]2[C@@H]3CCC4=CC(=O)CC[C@]4(C)[C@H]3CC[C@]12C` [progesterone] as the molecule, how does the “prevention of morphine tolerance” value (mice) read?
Its value is “positive results”.
